Source: patent US20090239936A1, “Prophylactic and Therapeutic Agent for Cancer” (priority 2006, published 2009)
Values belong to the molecule of their own block, whether it stands above or below them.

Key:
[1] = system: P-glycoprotein; assay: P-glycoprotein expression level by western blotting after drug addition; assay type: cell-based, human
Protocol: In […] HCT-15 cells (obtained from Developmental Therapeutics Program, National Cancer Institute, National Institutes of Health, Bethesda, Md., USA) and […] SW620 cells (obtained from Developmental Therapeutics Program, National Cancer Institute, National Institutes of Health, Bethesda, Md., USA), which expressed P-glycoprotein at a high level, screening of drugs that reduced the expression level of P-glycoprotein was performed by western blotting. […]
Inhibitory effects of MEK inhibitor U0126 on the expression level of P-glycoprotein in HCT-15 and SW620 cells prepared by the same procedure as described in PREPARATION EXAMPLE 1 in which endogenous P-glycoprotein was expressed and in the MCF-7/MDR and MDA-MB-231/MDR cells in which exogenous P-glycoprotein was expressed were monitored with passage of time in a manner similar to EXAMPLE 1. […]
Using MEK inhibitor PD098059 (purchased from Cell Signaling Technology; see English, J. et al. (1999) Exp. Cell Res. 253, 255), which has an action mechanism different from U0126, inhibitory effects of MEK inhibitor PD098059 on the expression level of P-glycoprotein in the HCT-15 and SW620 cells in which endogenous P-glycoprotein was expressed and in the MCF-7/MDR and MDA-MB-231/MDR cells in which exogenous P-glycoprotein was expressed were monitored with passage of time in a manner similar to EXAMPLE 1. […]

[2] = system: MDR1 mRNA; settings: U0126 10 μM
[3] = system: BCRP; settings: U0126 10 μM; human colon cancer (HT-29, KM12), non-small-cell lung cancer (NCI-H460, A549) and ovarian cancer (OVACAR-5) cells; in 12 hours later (FIG. 5)
[4] = system: HCT-15 cells; assay: cell growth inhibition test, HCT-15; assay type: cell-based; settings: Homo sapiens, 120 h, read-out: IC50 concentration (50% growth inhibitory concentration), 5 days
[5] = system: SW620-14 cells; assay: cell growth inhibition test, SW620-14; assay type: cell-based; settings: Homo sapiens, 120 h, read-out: IC50 concentration (50% growth inhibitory concentration), 5 days
[6] = system: MCF-7/MDR cells; assay: cell growth inhibition test, MCF-7/MDR; assay type: cell-based; settings: Homo sapiens, MCF7, 120 h, read-out: IC50 concentration (50% growth inhibitory concentration), 5 days
[7] = system: MDA-MB-231/MDR cells; assay: cell growth inhibition test, MDA-MB-231/MDR; assay type: cell-based; settings: Homo sapiens, 120 h, read-out: IC50 concentration (50% growth inhibitory concentration), 5 days

Compound: O=c1cc(N2CCOCC2)oc2c(-c3ccccc3)cccc12 [LY294002, 2-(4-morpholinyl)-8-phenyl-1(4H)-benzopyran-4-one]
- P-glycoprotein expression level ([1]; HCT-15 cells and SW620 cells, endogenous P-glycoprotein, western blotting (FIG. 1)): not down-regulated

Compound: N#CC(=C(N)Sc1ccccc1N)C(C#N)=C(N)Sc1ccccc1N [U0126, 1,4-diamino-2,3-dicyano-1,4-bis[2-aminophenylthio]butadiene]
- expression level of P-glycoprotein ([1]; U0126 10 μM, MCF-7/MDR and MDA-MB-231/MDR cells (exogenous P-glycoprotein), in 8 to 12 hours (FIG. 2)): ≤ 10 % of control
- expression level of MDR1 mRNA [2]: Any change was not observed
- expression level of BCRP [3]: reduced

- IC50 [4]: 100 nM
- IC50 [5]: 5 nM
- IC50 [6]: 4 nM
- IC50 [7]: 800 nM
Compound: CC(=O)O[C@H]1C(=O)[C@@]2(C)[C@H]([C@H](OC(=O)c3ccccc3)[C@]3(O)C[C@H](OC(=O)[C@H](O)[C@@H](NC(=O)c4ccccc4)c4ccccc4)C(C)=C1C3(C)C)[C@]1(OC(C)=O)CO[C@@H]1C[C@@H]2O [paclitaxel]
